According to PubChem BioAssay (NCI):
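Following 48 hours of exposure in 96-well plates, responses at five concentrations were used to interpolate endpoints linearly. TGI marks complete inhibition of growth.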

Key:
Experiment in all cases: NCI anticancer screen, dose series, 48 h
SK-MEL-2 melanoma = test system: SK-MEL-2 melanoma
SF-268 CNS = test system: SF-268 CNS
COLO 205 colon = test system: COLO 205 colon
SN12C renal = test system: SN12C renal
NCI-H226 lung = test system: NCI-H226 lung
HCT-15 colon = test system: HCT-15 colon
MALME-3M melanoma = test system: MALME-3M melanoma
SR leukemia = test system: SR leukemia
MOLT-4 leukemia = test system: MOLT-4 leukemia
K-562 leukemia = test system: K-562 leukemia
MDA-N = test system: MDA-N
CAKI-1 renal = test system: CAKI-1 renal
MDA-MB-435 = test system: MDA-MB-435
DU-145 prostate = test system: DU-145 prostate
HS 578T breast = test system: HS 578T breast
BT-549 breast = test system: BT-549 breast

SMILES | TGI (SK-MEL-2 melanoma) | TGI (SF-268 CNS) | TGI (COLO 205 colon) | TGI (SN12C renal) | TGI (NCI-H226 lung) | TGI (HCT-15 colon) | TGI (MALME-3M melanoma) | TGI (SR leukemia) | TGI (MOLT-4 leukemia) | TGI (K-562 leukemia) | TGI (MDA-N) | TGI (CAKI-1 renal) | TGI (MDA-MB-435) | TGI (DU-145 prostate) | TGI (HS 578T breast) | TGI (BT-549 breast)
COC(=O)C1CC(c2ccc(Cl)cc2)=NO1 (stereo not drawn) | > 100 µM | > 100 µM | > 100 µM | > 100 µM | > 100 µM | > 100 µM | > 100 µM | > 100 µM | > 100 µM | > 100 µM |  |  |  |  |  | 
O=C(O)CCNc1ncc2c(n1)-c1ccccc1OC2 | > 100 µM | > 100 µM | > 100 µM | > 100 µM | > 100 µM | > 100 µM | > 100 µM | > 100 µM | > 100 µM | > 100 µM | > 100 µM | > 100 µM | > 100 µM | > 100 µM | > 100 µM | 
O=C1C[C@@H]2[C@@H](CCC23CCCC3)N1 | > 100 µM | > 100 µM | > 100 µM | > 100 µM | > 100 µM | > 100 µM | > 100 µM |  | > 100 µM | > 100 µM |  | > 100 µM |  |  |  | 
Cc1ccc(C(=O)C(c2nc3n(c2O)C(=N)N=N3)c2nc3n(c2O)C(=N)N=N3)cc1 (stereo not drawn) | > 100 µM | > 100 µM | > 100 µM | > 100 µM | > 100 µM | > 100 µM | > 100 µM |  | > 100 µM | > 100 µM |  | > 100 µM |  |  |  | 
CC1OC(OC2C(OC(=O)[C@]34CCC(C)(C)CC3C3=CCC5[C@@]6(C)C[C@H](O)[C@H](OC7OC(COC8OC(CO)C(O)C(O)C8O)C(O)C(O)C7O)[C@@](C)(C(=O)O)C6CC[C@@]5(C)C3(C)CC4)OCC(O)C2O)C(O)C(O)C1OC1OCC(O)C(O)C1O (stereo partly drawn) | > 100 µM | > 100 µM | > 100 µM | > 100 µM | > 100 µM | > 100 µM | > 100 µM |  | > 100 µM | > 100 µM |  | > 100 µM |  |  |  | 
Fc1ccc(Oc2nc3ccccc3nc2-c2ccccc2)cc1 | > 100 µM | > 100 µM | > 100 µM | > 100 µM | > 100 µM | > 100 µM | > 100 µM | > 100 µM | > 100 µM | > 100 µM |  | > 100 µM | > 100 µM | > 100 µM | > 100 µM | > 100 µM
CCOC(CN(C)C(=O)Nc1ccc(Cl)c(Cl)c1)OCC | > 10 µM | > 10 µM | > 10 µM | > 10 µM | > 10 µM | > 10 µM | > 10 µM | > 10 µM | > 10 µM | > 10 µM | > 10 µM | > 10 µM | > 10 µM | > 10 µM | > 10 µM | 
Cc1ccc(NC(=O)CCc2nnc3s/c(=C\c4cccc([N+](=O)[O-])c4)c(=O)n23)cc1 | > 100 µM | > 100 µM | > 100 µM | > 100 µM | > 100 µM | > 100 µM | > 100 µM | > 100 µM | > 100 µM | > 100 µM |  | > 100 µM |  |  |  | 
CC(NC(=O)C(N)CC(=O)O)C(=O)OC12CC3CC(CC(C3)C1)C2 (stereo not drawn) | > 100 µM | > 100 µM | > 100 µM | > 100 µM |  | > 100 µM |  | > 100 µM | > 100 µM | > 100 µM |  | > 100 µM | > 100 µM | > 100 µM | > 100 µM | 
CC(=O)c1cc(CC2Cc3cc4c(cc3C2=O)CCC4)cc2c1CCC2 (stereo not drawn) | > 100 µM | > 100 µM | 76.2 µM | > 100 µM | > 100 µM | > 100 µM | > 100 µM | > 100 µM | 90.5 µM | > 100 µM |  | > 100 µM | > 100 µM | > 100 µM | > 100 µM | > 100 µM
CO[C@H](C(=O)O[C@H]1C(=O)N2CC[C@@H]3CCC[C@H]1C32C)c1ccccc1 (stereo partly drawn) | > 100 µM | > 100 µM | > 100 µM | > 100 µM | > 100 µM |  | > 100 µM | > 100 µM | > 100 µM | > 100 µM |  | > 100 µM |  |  |  | 
CCC(=O)N(c1ccccc1)C(C)CN1CCC(O)(c2cccc(C(F)(F)F)c2)CC1 (stereo not drawn) | 43 µM |  | 28.5 µM | > 100 µM | 76.5 µM | 90.9 µM |  |  | 44.5 µM | 75.4 µM | 39.2 µM | > 100 µM | 42 µM |  | 99.7 µM | 
COc1cccc(N2C(=O)/C(=C/c3ccc(N(CCC#N)CCC#N)cc3)N=C2c2cc([N+](=O)[O-])ccc2Cl)c1 | > 100 µM | > 100 µM | 62.4 µM | > 100 µM | > 100 µM | > 100 µM | > 100 µM | > 100 µM | 68.2 µM | > 100 µM |  | > 100 µM |  |  |  | 
CSCCC(NC(=O)Cc1ccc(C(=O)c2ccccc2)cc1)C(=O)N1CCN(CCCCN2c3ccccc3Sc3cc(N=[N+]=[N-])ccc32)CC1 (stereo not drawn) | > 100 µM | > 100 µM | > 100 µM | > 100 µM | > 100 µM | > 100 µM | > 100 µM |  | > 100 µM | > 100 µM |  | > 100 µM |  | > 100 µM |  | > 100 µM
O=C(NC1CCN(Cc2ccccc2)CC1)c1cccc(I)c1 | 38.5 µM | > 100 µM | 32.5 µM | > 100 µM | 78.1 µM | 35.6 µM | 32.5 µM | 80.3 µM | > 100 µM | > 100 µM |  | 54.5 µM | 34.9 µM | > 100 µM | 83 µM | > 100 µM
COc1ccc(Cc2cc(OC)c(OC)c(OC)c2)cc1 | 41.4 µM | > 100 µM | 1.51 µM | > 89.3 µM | 12 µM | > 30.9 µM | > 100 µM | 1.4 µM | 23.9 µM | 22 µM |  | > 51.7 µM | > 100 µM | 6.38 µM |  | 75.6 µM
O=[N+]([O-])c1cnc(N(CCO)CCO)s1 | > 100 µM | > 100 µM | > 100 µM | > 100 µM | > 100 µM | > 100 µM | > 100 µM | > 100 µM | > 100 µM | > 100 µM | > 100 µM | > 100 µM | > 100 µM | > 100 µM |  | 
CN1C(=S)CSc2ccccc21 | > 100 µM | > 100 µM | > 100 µM | > 100 µM | > 100 µM | > 100 µM | > 100 µM | > 100 µM | > 100 µM | > 100 µM |  | > 100 µM |  |  |  | 
O=S1(=O)OCCOS(=O)(=O)C1(Cl)Cl | > 100 µM | > 100 µM | > 100 µM | > 100 µM | > 100 µM |  | > 100 µM | > 100 µM | > 100 µM | > 100 µM |  | > 100 µM |  |  |  | 
Cc1cn(CC2=NC3CCCCC3N2)c(=O)[nH]c1=O (stereo not drawn) | > 100 µM | > 100 µM | > 100 µM | > 100 µM | > 100 µM | > 100 µM | > 100 µM | > 100 µM | > 100 µM | > 100 µM |  |  |  | > 100 µM | > 100 µM | > 100 µM
O=C1N=CN=C2C=CC(Cl)=C(I)C12 (stereo not drawn) | > 100 µM | > 100 µM | > 100 µM | > 100 µM |  |  | > 100 µM | > 100 µM | > 100 µM | > 100 µM |  | > 100 µM |  |  |  | 
Cc1ccc(S(=O)(=O)NN=C2C(C)(C)CC2(C)C)cc1 | > 100 µM | > 100 µM | > 100 µM | > 100 µM | > 100 µM | > 100 µM | > 100 µM |  | > 100 µM | > 100 µM | > 100 µM | > 100 µM | > 100 µM | > 100 µM | > 100 µM | 
CC(C)COC(=O)c1ccc(N=Cc2ccc(C=Nc3ccc(C(=O)OCC(C)C)cc3)cc2)cc1 | > 100 µM | > 100 µM | > 100 µM | > 100 µM | > 100 µM | > 100 µM | > 100 µM | > 100 µM | > 100 µM | > 100 µM |  | > 100 µM |  |  |  | 
CCOC(=O)c1cc(-c2ccc([N+](=O)[O-])cc2)c([N+](=O)[O-])[nH]1 | > 10 µM | > 10 µM |  | > 10 µM | 5.77 µM | > 10 µM | > 10 µM | > 10 µM | > 10 µM | > 10 µM |  |  | 9.3 µM | > 10 µM | > 10 µM | > 10 µM
O=C(CC(=O)N1N=C(n2ccc3ccccc32)CC1c1ccccc1)Nc1ccc(Cl)cc1 (stereo not drawn) | > 100 µM | > 100 µM | > 100 µM | > 100 µM |  | > 100 µM | > 100 µM |  | > 100 µM | > 100 µM |  |  |  |  |  | 
CC(=O)NNc1nc(C)c(C(/C=C/c2ccc(Cl)cc2)=N\N=C(N)N)s1 |  | > 100 µM | > 100 µM | > 100 µM | > 100 µM | > 100 µM | > 100 µM | > 100 µM | > 100 µM | > 100 µM |  | > 100 µM |  |  |  | 
O=C1CNc2cc(N3CCOCC3)ccc2N1 | > 100 µM | > 100 µM | > 100 µM |  | > 100 µM | > 100 µM | > 100 µM | > 100 µM | > 100 µM | > 100 µM |  | > 100 µM | > 100 µM | > 100 µM | > 100 µM | > 100 µM
